According to patent US9993494B2, “Compositions and methods for treating fibrotic disease” (eFFECTOR Therapeutics, Inc., priority 2014, dated 2018):

Test system: normal human lung fibroblasts
Assay: Ribosomal profiling: translational efficiency in TGFβ-treated fibroblasts
Assay type: cell-based
Summary of the method: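 Genome-wide RPF and total RNA libraries (ARTseq, RNA-Seq) were made from lysates of cycloheximide-treated, PBS-washed cells. After trimming and human-genome mapping, per-gene coding-region counts were compared between RPF and RNA for translational efficiency. Genes scoring low in either fraction were dropped.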

## TGFβ
ENSG00000008988, 5 replicates
  Log2 TE RPS20: 1.435
ENSG00000013563, Control vs. TGFβ
  change in translational profile of DNASE1L1 caused by TGFβ: D (D = <1.0 to 1.5)
ENSG00000026025, 5 replicates
  Log2 TE VIM: 1.002
ENSG00000047648, 5 replicates
  Log2 TE ARHGAP6: −1.082
ENSG00000049130, 5 replicates
  Log2 TE KITLG: −2.027
ENSG00000049130, Control vs. TGFβ
  change in translational profile of KITLG caused by TGFβ: A (A = <−2.5)
ENSG00000049192, 5 replicates
  Log2 TE ADAMTS6: 2.863
ENSG00000049192, Control vs. TGFβ
  change in translational profile of ADAMTS6 caused by TGFβ: F (F = >2.5)
ENSG00000050426, 5 replicates
  Log2 TE LETMD1: 1.27
ENSG00000050426, Control vs. TGFβ
  change in translational profile of LETMD1 caused by TGFβ: D (D = <1.0 to 1.5)
ENSG00000052126, Control vs. TGFβ
  change in translational profile of PLEKHA5 caused by TGFβ: C (C = <−1.0 to −1.5)
ENSG00000053747, 5 replicates
  Log2 TE LAMA3: −1.233
ENSG00000054654, 5 replicates
  Log2 TE SYNE2: −1.793
ENSG00000063046, Control vs. TGFβ
  change in translational profile of EIF4B caused by TGFβ: E (E = <1.5 to 2.5)
ENSG00000063177, 5 replicates
  Log2 TE RPL18: 1.612
ENSG00000063177, Control vs. TGFβ
  change in translational profile of RPL18 caused by TGFβ: E (E = <1.5 to 2.5)
ENSG00000064042, 5 replicates
  Log2 TE LIMCH1: −1.222
ENSG00000064393, Control vs. TGFβ
  change in translational profile of HIPK2 caused by TGFβ: C (C = <−1.0 to −1.5)
ENSG00000066279, 5 replicates
  Log2 TE ASPM: −2.175
ENSG00000066279, Control vs. TGFβ
  change in translational profile of ASPM caused by TGFβ: A (A = <−2.5)
ENSG00000068028, Control vs. TGFβ
  change in translational profile of RASSF1 caused by TGFβ: D (D = <1.0 to 1.5)
ENSG00000070756, 5 replicates
  Log2 TE PABPC1: 1.207
ENSG00000070756, Control vs. TGFβ
  change in translational profile of PABPC1 caused by TGFβ: D (D = <1.0 to 1.5)
ENSG00000071082, 5 replicates
  Log2 TE RPL31: 1.6
ENSG00000071082, Control vs. TGFβ
  change in translational profile of RPL31 caused by TGFβ: E (E = <1.5 to 2.5)
ENSG00000075651, 5 replicates
  Log2 TE PLD1: −1.032
ENSG00000075651, Control vs. TGFβ
  change in translational profile of PLD1 caused by TGFβ: B (B = <−1.5 to −2.5)
ENSG00000077312, 5 replicates
  Log2 TE SNRPA: 1.462
ENSG00000078401, Control vs. TGFβ
  change in translational profile of EDN1 caused by TGFβ: E (E = <1.5 to 2.5)
ENSG00000081377, 5 replicates
  Log2 TE CDC14B: −1.331
ENSG00000083845, 5 replicates
  Log2 TE RPS5: 1.533
ENSG00000087586, 5 replicates
  Log2 TE AURKA: −1.736
ENSG00000087586, Control vs. TGFβ
  change in translational profile of AURKA caused by TGFβ: B (B = <−1.5 to −2.5)
ENSG00000088367, 5 replicates
  Log2 TE EPB41L1: 1.018
ENSG00000088367, Control vs. TGFβ
  change in translational profile of EPB41L1 caused by TGFβ: D (D = <1.0 to 1.5)
ENSG00000088756, 5 replicates
  Log2 TE ARHGAP28: −1.024
ENSG00000089009, 5 replicates
  Log2 TE RPL6: 1.107
ENSG00000089009, Control vs. TGFβ
  change in translational profile of RPL6 caused by TGFβ: D (D = <1.0 to 1.5)
ENSG00000089041, Control vs. TGFβ
  change in translational profile of P2RX7 caused by TGFβ: B (B = <−1.5 to −2.5)
ENSG00000089094, Control vs. TGFβ
  change in translational profile of KDM2B caused by TGFβ: C (C = <−1.0 to −1.5)
ENSG00000089157, Control vs. TGFβ
  change in translational profile of RPLP0 caused by TGFβ: D (D = <1.0 to 1.5)
ENSG00000089289, 5 replicates
  Log2 TE IGBP1: 1.266
ENSG00000089289, Control vs. TGFβ
  change in translational profile of IGBP1 caused by TGFβ: E (E = <1.5 to 2.5)
ENSG00000089351, 5 replicates
  Log2 TE GRAMD1A: 1.069
ENSG00000090376, 5 replicates
  Log2 TE IRAK3: −1.017
ENSG00000090376, Control vs. TGFβ
  change in translational profile of IRAK3 caused by TGFβ: C (C = <−1.0 to −1.5)
ENSG00000090621, Control vs. TGFβ
  change in translational profile of PABPC4 caused by TGFβ: D (D = <1.0 to 1.5)
ENSG00000094963, 5 replicates
  Log2 TE FMO2: −2.146
ENSG00000094963, Control vs. TGFβ
  change in translational profile of FMO2 caused by TGFβ: A (A = <−2.5)
ENSG00000097021, 5 replicates
  Log2 TE ACOT7: 1.011
ENSG00000097021, Control vs. TGFβ
  change in translational profile of ACOT7 caused by TGFβ: D (D = <1.0 to 1.5)
ENSG00000099624, Control vs. TGFβ
  change in translational profile of ATP5D caused by TGFβ: D (D = <1.0 to 1.5)
ENSG00000100097, Control vs. TGFβ
  change in translational profile of LGALS1 caused by TGFβ: D (D = <1.0 to 1.5)
ENSG00000100129, 5 replicates
  Log2 TE EIF3L: 1.429
ENSG00000100129, Control vs. TGFβ
  change in translational profile of EIF3L caused by TGFβ: D (D = <1.0 to 1.5)
ENSG00000100316, 5 replicates
  Log2 TE RPL3: 1.78
ENSG00000100316, Control vs. TGFβ
  change in translational profile of RPL3 caused by TGFβ: E (E = <1.5 to 2.5)
ENSG00000100575, 5 replicates
  Log2 TE TIMM9: 1.113
